Results reported in US20210292330A1, “PYRROLIDINE-FUSED HETEROCYCLES” (Erasca, Inc., priority 2020, published 2021).

Target: T1, KRAS 4B G12C protein (Homo sapiens, UniProt P01116, G12C)
T1 construct: This protein contained 188 amino acids in total, including an N-terminal 6-Histidine tag; made in house; host or cells: E. coli BL21
Assay: In vitro covalent adduct formation (CAF) assay by LC-MS
Type: binding
Conditions: compound 10 μM, protein 5 μM, 22° C., percentage of protein bound by the compound
How it was run: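 Percent of protein covalently modified was quantified from intact-mass LC-MS ratios of free versus adducted protein, adducts within 1 Da of expected mass. Reactions: 10 μM compound, 5 μM His-TEV-KRAS 4B G12C (1-169) in TBS pH 7.4, 4% DMSO, 22° C., one hour, run in duplicate.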

Row | Compound | CAF (10 minutes/60 minutes) at 10 micromolar: 60 minutes | CAF (10 minutes/60 minutes) at 10 micromolar: 10 minutes
1 | C=CC(=O)N1CCN(c2nc(OC[C@@H]3CCCN3C)nc3c2CN(C2CCc4ccccc42)C3)C[C@H]1C(N)=O (some centres unmarked) [1-163] | NA/ 55% | 
2 | C=CC(=O)N1CCN(c2nc(OC[C@@H]3CCCN3C)nc3c2CN(C(C)c2c(O)cccc2F)C3)C[C@@H]1CC#N (some centres unmarked) [1-111] | 96% | 87%
3 | C=CC(=O)N1CCN(c2nc(OC[C@@H]3CCCN3C)nc3c2CN(Cc2c(C)cccc2OC(F)F)C3)C[C@@H]1CC#N [1-83] | 100% | 97%
4 | C=C(F)C(=O)N1CCN(c2nc(OC[C@@H]3CCCN3C)nc3c2CN(Cc2c(Cl)ccc4ccccc24)C3)C[C@@H]1CC#N [1-254] | 73% | 31%
5 | C=CC(=O)N1CCN(c2nc(OC[C@@H]3CCCN3C)nc3c2CN(Cc2ccccc2C(F)(F)F)C3)C[C@@H]1CC#N [1-213] | 95% | 94%
6 | C=C(F)C(=O)N1CCN(c2nc(OC[C@@H]3CCCN3C)nc3c2CN(Cc2nc(N)cc(C)c2C(F)(F)F)C3)C[C@@H]1CC#N [1-334] | 86% | 79%
7 | C=CC(=O)N1CCN(c2nc(Oc3cnc(N)nc3C3CC3)nc3c2CN(C2CCc4ccccc42)C3)C[C@@H]1CC#N (some centres unmarked) [1-207] | 50% | 16%
8 | C=C(F)C(=O)N1CCN(c2nc(OC[C@@H]3CCCN3C)nc3c2CN(Cc2n[nH]c4ccccc24)C3)C[C@@H]1CC#N [1-345] | 0%/ 0% | 0%/ 0%
9 | C=C(F)C(=O)N1CCN(c2nc(OC[C@@H]3CCCN3C)nc3c2CN(Cc2cc(O)c(C)cc2Cl)C3)C[C@@H]1CC#N [1-329] | 22% | 2%
10 | C=CC(=O)N1CCN(c2nc(OC[C@@H]3CCCN3C)nc3c2CN(C(=O)c2cc(O)ccc2C)C3)[C@@H](C)C1 [1-23, 1-((S)-4-(6-(5-hydroxy-2-methylbenzoyl)-2-(((S)-1-methylpyrrolidin-2-yl)methoxy)-6,7-dihydro-5H-pyrrolo[3,4-d]pyrimidin-4-yl)-3-methylpiperazin-1-yl)prop-2-en-1-one] | 35% | 9%
11 | C=CC(=O)N1CCN(c2nc(OC[C@@H]3CCCN3C)nc3c2CN(Cc2c(O)cccc2Cl)C3)C[C@@H]1CC#N [1-51] | 98%/ 98% | 98%/ 98%
12 | C=C(F)C(=O)N1CCN(c2nc(OC[C@@H]3CCCN3C)nc3c2CN(C2CCc4ccccc42)C3)C[C@@H]1CC#N (some centres unmarked) [1-138] | 54% | 38%
13 | C=CC(=O)N1CCN(c2nc(OC[C@@H]3CCCN3C)nc3c2CN(Cc2cc(C)ccc2C)C3)C[C@@H]1CC#N [1-70] | 94% | 77%
14 | C=CC(=O)N1CCN(c2nc(SC)nc3c2CN(C2CCc4ccccc42)C3)C[C@@H]1CC#N (some centres unmarked) [1-136] | 56% | 16%
15 | C=CC(=O)N1CCN(c2nc(OC[C@@H]3CCCN3C)nc3c2CN(Cc2cc(O)ccc2F)C3)C[C@@H]1CC#N [1-46] | 99% | 98%
16 | C=CC(=O)N1CCN(c2nc(OC[C@@H]3CCCN3C)nc3c2CN(Cc2cc(F)cc(F)c2)C3)C[C@@H]1CC#N [1-12] | 74% | 28%
17 | C=CC(=O)N1CCN(c2nc(OC[C@@H]3CCCN3C)nc3c2CN(Cc2c(C)cc(C)c(O)c2C)C3)C[C@@H]1CC#N [1-324] | 78% | 31%
18 | C=CC(=O)N1CCN(c2nc(OC[C@@H]3CCCN3C)nc3c2CN(C2CCc4ccccc42)C3)C[C@@H]1CSC (some centres unmarked) [1-195] | 2% | 0%

Row | Compound | CAF (10 minutes/60 minutes) at 10 micromolar: 60 minutes | CAF (10 minutes/60 minutes) at 10 micromolar: 10 minutes
19 | C=CC(=O)N1CCN(c2nc(OC[C@@H]3CCCN3C)nc3c2CN(Cc2ccccc2C(C)C)C3)C[C@@H]1CC#N [1-168] | 97% | 95%
20 | C=CC(=O)N1CCN(c2nc(OC[C@@H]3CCCN3C)nc3c2CN(Cc2cccc(F)c2)C3)C[C@@H]1CC#N [1-35] | 91% | 56%
21 | C=CC(=O)N1CCN(c2nc(OC[C@@H]3CCCN3C)nc3c2CN(Cc2cc(OC)ccc2C)C3)C[C@@H]1CC#N [1-6] | 93% | 65%
22 | C=CC(=O)N1C2COCC1CN(c1nc(OC[C@@H]3CCCN3C)nc3c1CN(Cc1cc(OC)ccc1Cl)C3)C2 [1-114] | 0%/ 0% | 0%/ 0%
23 | C=CC(=O)N1CCN(c2nc(OC[C@@H]3CCCN3C)nc3c2CN(C2CCCc4cccc(Cl)c42)C3)C[C@@H]1CC#N (some centres unmarked) [1-72] | 98% | 95%
24 | C=CC(=O)N1CCN(c2nc(OC)nc3c2CN(Cc2cc(OC)ccc2Cl)C3)C[C@@H]1CC#N [1-74] | 21% | 2%
25 | C=CC(=O)N1CCN(c2nc(OC[C@@H]3CCCN3C)nc3c2CN(C2CCc4ccccc42)C3)C[C@@H]1CCC(N)=O (some centres unmarked) [1-231] | 1% | 0%
26 | C=C(F)C(=O)N1CCN(c2nc(OC[C@@H]3CCCN3C)nc3c2CN(Cc2cc(O)c(Cl)cc2C)C3)C[C@@H]1CC#N [1-326, 2-[(2S)-4-{6-[(4-chloro-5-hydroxy-2-methylphenyl)methyl]-2-{[(2S)-1-methylpyrrolidin-2-yl]methoxy}-5H,7H-pyrrolo[3,4-d]pyrimidin-4-yl}-1-(2-fluoroprop-2-enoyl)piperazin-2-yl]acetonitrile] | 2% | 0%
27 | C=C(F)C(=O)N1CCN(c2nc(OC[C@@H]3CCCN3C)nc3c2CN(Cc2n[nH]cc2C)C3)C[C@@H]1CC#N [1-344] | 2% | 0%
28 | C=CC(=O)N1CCN(c2nc(OC[C@@H]3CCCN3C)nc3c2CN(Cc2c(Cl)cccc2OC(F)F)C3)C[C@@H]1C [1-85] | 0%/ 0% | 0%/ 0%
29 | C=CC(=O)N1CCN(c2nc(OC[C@@H]3CCCN3C)nc3c2CN(Cc2cc(Cl)ccc2C)C3)[C@@H](C)C1 [1-30] | 7% | 0%
30 | C=CC(=O)N1CCN(c2nc(OC[C@@H]3CCCN3C)nc3c2CN(Cc2cccc4c2CCO4)C3)C[C@@H]1CC#N [1-143] | 70% | 48%
31 | C=CC(=O)N1C2CCCC1CN(c1nc(OC[C@@H]3CCCN3C)nc3c1CN(Cc1cc(O)ccc1Cl)C3)C2 [1-149] | 8% | 0%
32 | C=CC(=O)N1CCN(c2nc(OC[C@@H]3CCCN3C3CC3)nc3c2CN(C2CCc4ccccc42)C3)C[C@@H]1CC#N (stereo partly drawn) [1-198, 2-((2S)-1-acryloyl-4-(2-(((S)-1-cyclopropylpyrrolidin-2-yl)methoxy)-6-(2,3-dihydro-1H-inden-1-yl)-6,7-dihydro-5H-pyrrolo[3,4-d]pyrimidin-4-yl)piperazin-2-yl)acetonitrile] | 18% | 15%
33 | C=C(F)C(=O)N1CCN(c2nc(OC[C@@H]3CCCN3C)nc3c2CN(Cc2c[nH]nc2C)C3)C[C@@H]1CC#N [1-343] | 0%/ 0% | 0%/ 0%
34 | C=CC(=O)N1CCN(c2nc(OC[C@@H]3CCCN3C)nc3c2CN(C2CCc4ccccc42)C3)C[C@@H]1CO (some centres unmarked) [1-116] | 17% | 2%
35 | C=CC(=O)N1CCN(c2nc(OC[C@@H]3CCCN3C)nc3c2CN(Cc2nc(OC)ccc2Cl)C3)[C@@H](C)C1 [1-65] | 2% | 0%
36 | C=CC(=O)N1CCN(c2nc(OC[C@@H]3CCCN3C)nc3c2CN(C2CCCc4ccccc42)C3)C[C@@H]1CC#N (stereo partly drawn) [1-52 (2nd isomer)] | 91% | 76%
